The values below come from patent publication US20230339886A1 (University of Florida Research Foundation, Incorporated, priority 2020, published 2023).

A word on the EC50: it is the concentration that produces a half-maximal response.

The structures appear in SMILES notation.

In the assay the target is T1, REV-ERBα LBD (human; residues 281-614 Δ324-422) (Homo sapiens, UniProt P20393, DEL324-422).
T1 construct: 6×Histag-REV-ERBα LBD (human; residues 281-614 Δ324-422); made in house; host or cells: Escherichia coli
T1 sequence (P20393 with tags, fused parts or gaps DEL324-422): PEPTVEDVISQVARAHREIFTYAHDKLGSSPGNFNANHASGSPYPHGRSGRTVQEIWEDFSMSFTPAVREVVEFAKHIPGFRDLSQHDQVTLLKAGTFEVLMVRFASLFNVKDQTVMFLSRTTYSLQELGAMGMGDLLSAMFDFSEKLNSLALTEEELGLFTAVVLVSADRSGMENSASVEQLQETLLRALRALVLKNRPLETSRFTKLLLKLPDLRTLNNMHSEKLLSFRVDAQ
T1 sequence (Q9Y618 2335-2356 partner limits assumed): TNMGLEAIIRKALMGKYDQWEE
As to the kind of experiment: TR-FRET corepressor interaction assay (REV-ERBα LBD, FITC-SMRT peptide). Particulars: Table 2, read-out: REVERBα agonism (EC50 class, FRET assay). The class given is biochemical. How it is done:
TR-FRET corepressor interaction assay. The time-resolved fluorescence resonance energy transfer (TR-FRET) assay was performed in black low-volume 384-well plates (Greiner). […] Ligand stocks were prepared via serial dilution in DMSO, added to wells in triplicate, and plates were incubated at 4° C. for 2 h and read using a BioTek Synergy Neo multimode plate reader. The Tb donor was excited at 340 nm; its fluorescence emission was monitored at 495 nm, and the acceptor FITC emission was measured at 520 nm; and the TR-FRET ratio was calculated as the signal at 520 nm divided by the signal at 495 nm. Data were plotted using GraphPad Prism as TR-FRET ratio vs. ligand concentration and fit to sigmoidal dose response curve equation.
Background: TR-FRET usually uses a lanthanide donor and a delayed reading to cut background.
Take `CC(C)Cn1cc(C2CCCN(S(=O)(=O)N(C)C)C2)c2ccc(-c3ccccc3)cc21` (stereo not drawn) [Example 61, 3-(1-isobutyl-6-phenyl-1H-indol-3-yl)-N,N-dimethylpiperidine-1-sulfonamide]: the half-maximal effective concentration (EC50) lay in the range of 0.5 to 3 µM. Under `CC(C)Cn1cc(-c2cnn(S(=O)(=O)C(C)C)c2)c2ccc(-c3ccccc3)cc21` [Example 63, 1-isobutyl-3-(1-(isopropylsulfonyl)-1H-pyrazol-4-yl)-6-phenyl-1H-indole] stands above 3 µM. With `CNS(=O)(=O)c1ccccc1-c1ccc2c(CCNS(=O)(=O)N(C)C)cn(CC(C)C)c2c1` [Example 72, N′-{2-[6-(2-N′-methylsulfonamidophenyl)-1-(2-methylpropyl)-1H-indol-3-yl]ethyl}-N,N-dimethylsulfuric diamide] the figure was 0.5 to 3 µM; with `COC(=O)c1ccccc1-c1ccc2c(CCNS(=O)(=O)N(C)C)cn(CC(C)C)c2c1` [Example 73, N′-{2-[6-(2-methyl carbonatephenyl)-1-(2-methylpropyl)-1H-indol-3-yl]ethyl}-N,N-dimethyl sulfuric diamide], above 3 µM; with `CC(C)Cn1cc(CCNS(=O)(=O)N(C)C)c2ccc(-c3ccccc3-c3ccccc3)cc21` [Example 74, N-{2-[6-[(1,1-diphenyl)-2yl]-1-(2-methylpropyl)-1H-indol-3-yl]ethyl}-N,N-dimethylsulfuric diamide], above 3 µM. With `CC(C)Cn1cc(CCNS(=O)(=O)N(C)C)c2ccc(-c3ccccc3CO)cc21` [Example 76, N-{2-[6-(2-hydroxylmethylphenyl)-1-(2-methylpropyl)-1H-indol-3-yl]ethyl}-N,N-dimethyl-sulfuric diamide] the figure was 0.5 to 3 µM; with `CC(C)Cn1cc(CCNS(=O)(=O)N(C)C)c2ccc(-c3ccccc3OCc3ccccc3)cc21` [Example 77, N-{2-[6-(2-benzyloxylphenyl)-1-(2-methylpropyl)-1H-indol-3-yl]ethyl}-N,N-dimethyl-sulfuric diamide], 0.5 to 3 µM; with `CC(C)Cn1cc(CCNS(=O)(=O)N(C)C)c2ccc(-c3ccccc3C(=O)OC(C)(C)C)cc21` [Example 79], 0.5 to 3 µM. Regarding `Cc1cccc(C)c1-c1ccc2c(CCNS(=O)(=O)N(C)C)cn(CC(C)C)c2c1` [Example 81, N-{2-[6-(2,6-dimethylphenyl)-1-(2-methylpropyl)-1H-indol-3-yl]ethyl}-N,N-dimethyl-sulfuric diamide], the EC50 was below 0.5 µM. For the molecule `CC(C)Cn1cc(-c2cccc(NS(=O)(=O)C(C)C)c2)c2ccc(-c3ccccc3)cc21` [Example 83, N-(3-(1-isobutyl-6-phenyl-1H-indol-3-yl)phenyl)propane-2-sulfonamide], the EC50 is above 3 µM. With `CC(C)Cn1cc(-c2cccc(CNS(=O)(=O)C(C)C)c2)c2ccc(-c3ccccc3)cc21` [Example 86, N-(3-(1-isobutyl-6-phenyl-1H-indol-3-yl)benzyl)propane-2-sulfonamide] the figure was 0.5 to 3 µM. Under `CC(C)Cn1cc(-c2ccc(CNS(=O)(=O)C(C)C)cc2)c2ccc(-c3ccccc3)cc21` [Example 87, N-(4-(1-isobutyl-6-phenyl-1H-indol-3-yl)benzyl)propane-2-sulfonamide] stands 0.5 to 3 µM; under `C=C(C)c1ccc2c(CCNS(=O)(=O)N(C)C)cn(CC(C)C)c2c1` [Example 88], below 0.5 µM; under `CC(C)Cn1cc(CCNS(=O)(=O)N(C)C)c2ccc(-n3cccn3)cc21` [Example 92, N-{2-[6-(1H-pyrazol-1-yl)-1-(2-methylpropyl)-1H-indol-3-yl]ethyl}-N,N-dimethylsulfuric diamide], 0.5 to 3 µM. Under `CC(C)Cn1cc(CCNS(=O)(=O)N(C)C)c2ccc(-n3ccnc3)cc21` [Example 93, N-{2-[6-(1H-imidazol-1-yl)-1-(2-methylpropyl)-1H-indol-3-yl]ethyl}-N,N-dimethylsulfuric diamide] stands 0.5 to 3 µM; under `CC(C)Cn1cc(CCNS(=O)(=O)N(C)C)c2ccc(C(C)(C)C)cc21` [Example 106, ({2-[6-tert-butyl-1-(2-methylpropyl)-1H-indol-3-yl]ethyl}sulfamoyl)dimethylamine], above 3 µM; under `CC(C)Cn1cc(CCNS(=O)(=O)N(C)C)c2ccc(C3(O)CCC3)cc21` [Example 107, 1-(3-{2-[(dimethylsulfamoyl)amino]ethyl}-1-(2-methylpropyl)-1H-indol-6-yl)cyclobutan-1-ol], 0.5 to 3 µM. As for `CC(C)Cn1cc(CCNS(=O)(=O)N(C)C)c2ccc(C3CCC3)cc21` [Example 108, ({2-[6-cyclobutyl-1-(2-methylpropyl)-1H-indol-3-yl]ethyl}sulfamoyl)dimethylamine], the EC50 was below 0.5 µM. With `CC(C)Cn1cc(CCNS(=O)(=O)N(C)C)c2ccc(Cl)cc21` [Example 109, ({2-[6-chloro-1-(2-methylpropyl)-1H-indol-3-yl]ethyl}sulfamoyl)dimethylamine] the figure was below 0.5 µM. With `CC(C)Cn1cc(CCNS(=O)(=O)N(C)C)c2ccc(F)cc21` [Example 110, ({2-[6-fluoro-1-(2-methylpropyl)-1H-indol-3-yl]ethyl}sulfamoyl)dimethylamine], the EC50 was in the range of 0.5 to 3 µM. With `CC(C)Cn1cc(CCNS(=O)(=O)N(C)C)c2ccc(NC(C)C)cc21` [Example 111, N-{2-[6-isopropylamino-1-(2-methylpropyl)-1H-indol-3-yl]ethyl}-N,N-dimethylsulfuric diamide], the EC50 lay in the range of 0.5 to 3 µM. For the molecule `CCNc1ccc2c(CCNS(=O)(=O)N(C)C)cn(CC(C)C)c2c1` [Example 112, N′-{2-[6-ethylamino-1-(2-methylpropyl)-1H-indol-3-yl]ethyl}-N,N-dimethylsulfuric diamide], the EC50 was above 3 µM. Under `CC(C)Cn1cc(CCNS(=O)(=O)N(C)C)c2ccc(N(C)C)cc21` [Example 113, N′-{2-[6-N,N-dimethylamino-1-(2-methylpropyl)-1H-indol-3-yl]ethyl}-N,N-dimethylsulfuric diamide] stands 0.5 to 3 µM; under `CC(C)Cn1cc(CCN(C)S(=O)(=O)N(C)C)c2ccc(N(C)C)cc21` [Example 114, N′-{2-[6-N,N-dimethylamino-1-(2-methylpropyl)-1H-indol-3-yl]ethyl}-N′-methyl-N,N-dimethyl sulfuric diamide], 0.5 to 3 µM; under `CC(C)Cn1cc(CCNS(=O)(=O)N(C)C)c2ccc(OCc3ccccc3)cc21` [Example 115, N′-{2-[6-benzyloxy-1-(2-methylpropyl)-1H-indol-3-yl]ethyl}-N,N-dimethylsulfuric diamide], 0.5 to 3 µM. As to `CC(C)Cn1cc(CCNS(=O)(=O)N(C)C)c2ccc(O)cc21` [Example 116, N-{2-[6-hydroxy-1-(2-methylpropyl)-1H-indol-3-yl]ethyl}-N,N-dimethylsulfuric diamide], the EC50 is above 3 µM. Turning to `COc1ccc2c(CCN(C)S(=O)(=O)N(C)C)cn(CC(C)C)c2c1` [Example 117, N-{2-[6-methoxyl-1-(2-methylpropyl)-1H-indol-3-yl]ethyl}-N-methyl-N,N-dimethyl sulfuric diamide], the EC50 was above 3 µM. Under `CC(C)Cn1cc(CCNS(=O)(=O)N(C)C)c2ccc(OC(C)C)cc21` [Example 118, N′-{2-[6-isopropoxy-1-(2-methylpropyl)-1H-indol-3-yl]ethyl}-N,N-dimethylsulfuric diamide] stands 0.5 to 3 µM; under `CC(C)Cn1cc(CCNS(=O)(=O)N(C)C)c2ccc(OC(C)(C)C)cc21` [Example 119, N′-{2-[6-tert-butoxy-1-(2-methylpropyl)-1H-indol-3-yl]ethyl}-N,N-dimethylsulfuric diamide], 0.5 to 3 µM.

For the molecule `CC(C)Cn1cc(CCN(C)S(=O)(=O)N(C)C)c2ccc(C(F)(F)F)cc21` [Example 121, dimethyl[methyl({2-[1-(2-methylpropyl)-6-(trifluoromethyl)-1H-indol-3-yl]ethyl})sulfamoyl]amine], the half-maximal effective concentration (EC50) fell in the range of 0.5 to 3 µM. With `CC(C)Cc1cn(CCN(C)S(=O)(=O)N(C)C)c2ncc(-c3ccncc3)cc12` [Example 125, dimethyl[methyl({2-[3-(2-methylpropyl)-5-(pyridin-4-yl)-1H-pyrrolo[2,3-b]pyridin-1-yl]ethyl})sulfamoyl]amine] the figure was below 0.5 µM. Take `CC(C)Cc1cn(CCN(C)S(=O)(=O)C2CC2)c2ncc(-c3ccncc3)cc12` [Example 126, N-(2-(3-isobutyl-5-(pyridin-4-yl)-1H-pyrrolo[2,3-b]pyridin-1-yl)ethyl)-N-methylcyclopropanesulfonamide]: the EC50 is 0.5 to 3 µM. With `CN(C)S(=O)(=O)N(C)CCc1cn(C)c2cc(-c3ccncc3)ccc12` [Example 127, N′-{2-[6-(pyridin-4-yl)-1-methyl-1H-indol-3-yl]ethyl}-N′-methyl-N,N-dimethylsulfuric diamide] the figure was 0.5 to 3 µM.

Take `CN(C)S(=O)(=O)NCCc1cn(C)c2cc(-c3ccncc3)ccc12` [Example 128, N′-{2-[6-(pyridin-4-yl)-1-methyl-1H-indol-3-yl]ethyl}-N,N-dimethylsulfuric diamide]: the EC50 was 0.5 to 3 µM. With `CC(C)n1cc(CCNS(=O)(=O)N(C)C)c2ccc(-c3ccncc3)cc21` [Example 129, N′-{2-[6-(pyridin-4-yl)-1-isopropyl-1H-indol-3-yl]ethyl}-N,N-dimethylsulfuric diamide] the figure was 0.5 to 3 µM. In the case of `CC(C)S(=O)(=O)n1cc(CCNS(=O)(=O)N(C)C)c2ccc(-c3ccncc3)cc21` [Example 130, N′-{2-[6-(pyridin-4-yl)-1-isopropylsulfonyl-1H-indol-3-yl]ethyl}-N,N-dimethylsulfuric diamide], the EC50 was above 3 µM.
